Where “and” joins values, the source holds several entries; their conditions need not be identical. Equal entries are not always repeated.

The subject of this test is P. falciparum 3D7 growth, pLDH absorbance. In words: blood-stage malaria parasite growth potency – strain 3D7, dose response (AID 2305).
In general, IC50 refers to the concentration at which inhibition is half-maximal. The compound `c1ccc(CCNc2nc(NCC(c3ccccc3)c3ccccc3)c3[nH]cnc3n2)cc1` gave an IC50 of 620 nM.

`Cc1nn(-c2ccccc2)c2sc(C(=O)N(CCCN(C)C)c3nc(-c4ccccc4)cs3)cc12` displayed an IC50 of 980 nM. Turning to `O=[N+]([O-])c1cccc(C=NNc2ccnc3cc(F)ccc23)c1`, the IC50 is 910 nM. `O=C(Nc1ccc(Cl)cc1)Nc1ccc2c(c1)N1CCN=C1S2`: the IC50 was 590 nM. Compound `Oc1cccc(/C=N/Nc2ccnc3cc(Cl)ccc23)c1` had an IC50 of 730 nM. This IC50 and that of the compound before are within 1.5-fold of each other. To `CN(C)CCCOc1cccc(CCNCc2cccc(Oc3ccc(Cl)cc3)c2)c1` belongs 1010 nM; to `Cc1cc(NC2CCCC2)nc(Nc2ccccc2C)n1`, 1350 nM. In turn, `Cc1ccc(O)cc1Nc1ccnc2cc(-c3ccccc3)ccc12` gave an IC50 of 1070 nM. This IC50 and that of the compound before are within 1.5-fold of each other. Compound `Cn1nc(C(F)(F)F)c(-c2ccc(F)cc2)c1NC(=O)Nc1ccc(F)cc1` returned a concentration for half-maximal inhibition (IC50) of 750 nM. To `CN1CCN(c2ccc(Nc3ncc(C#N)c(Nc4ccccc4C(N)=O)n3)cc2)CC1` belongs 40 nM. The compound `O=C(Cc1cccc(Cl)c1)Nc1cccc(-c2c[nH]c3nc(Nc4cccc(OCc5ccccc5)c4)ncc23)c1` had a half-maximal inhibitory concentration (IC50) of 1040 nM. For `COc1cc(NC(=O)c2cccs2)c(C(=O)NCc2ccc(C)cc2)cc1OC`, the IC50 came out at 1360 nM. The IC50 values of the last two compounds are within 1.5-fold of each other. For the compound `CC(C)(C)c1ccc(CNC(=O)c2ccc(-c3nc4ccc(Cl)cc4[nH]3)cc2)cc1`, the IC50 was 820 nM. Turning to `COc1cccc(C(=O)Nc2nonc2-c2ccc(OC)c(OC)c2)c1`, the IC50 turned out to be 800 nM. The compound `O=C(C=Cc1ccc(Cl)c(Cl)c1)NCCCCCN1CCCC(CCCNC(=O)/C=C/c2ccccc2)C1` (stereo unspecified) showed an IC50 of 590 nM. The IC50 values of the last two compounds are within 1.5-fold of each other. On to `CO/C(=C\C=C\c1cc2cc(Cl)c(Cl)cc2[nH]1)C(=O)NC1C[C@H]2CCC[C@@H](C1)N2C` (stereo partly specified), for which the concentration for half-maximal inhibition (IC50) stood at 1000 nM. The compound `CC(O)C1CCCCN1C(=O)c1cccc(-c2cccc(-c3nc4ccccc4[nH]3)c2)c1` (stereo unspecified) returned an IC50 of 530 nM. The compound `CCCCc1cc(NCC)nc(Nc2ccc(F)cc2)n1` returned an IC50 of 790 nM. `Cc1nc(/N=C(\N)NC(=O)NC2CCCCC2)nc2ccccc12` came in with an IC50 of 790 nM. To `O=C(NCc1ccccc1)c1ccc(C(=O)NCC2CNCCO2)cc1` (stereo unspecified) belongs 1140 nM; to `CN(CCc1ccccn1)c1cccc2c1nc(-c1cccnc1)n2CCNCc1ccccc1`, 1060 nM; to `Oc1ccc(CNCCCCCCNCCc2ccc(Cl)cc2)cc1O`, 990 nM. The compound `COc1ccc(C)c(Nc2ccnc(Nc3cccc(-c4nc5ccccc5[nH]4)c3)n2)c1` returned an IC50 of 720 nM. On to `COc1ccccc1C1CCN(CCCCNC(=O)c2ccc(/C=C/c3cc(Cl)cc(Cl)c3)cc2)CC1`, for which the IC50 came out at 720 nM.

Take `CN(CCO)Cc1cccc(-c2ccc(NC(=O)c3cccc(C#N)c3)cc2)c1`: the IC50 worked out at 800 nM.

`c1ccc(-c2cc(NCCCCNc3cc(-c4ccccc4)nc4ccccc34)c3ccccc3n2)cc1` showed an IC50 of 130 nM. `CC1CCCN(Cc2c(O)ccc3c(=O)c(-c4nc5ccccc5s4)c(N)oc23)C1` (stereo unspecified): the IC50 stood at 140 nM.

`O=C(Nc1cc(C(F)(F)F)cc(C(F)(F)F)c1)NC1CCC(CN2CCC(c3c[nH]c4ccccc34)CC2)CC1` (stereo unspecified): the 50% inhibitory concentration (IC50) was 810 nM and 460 nM. For `Fc1ccc(C=NNc2ccnc3ccc(C(F)(F)F)cc23)cc1`, the IC50 stood at 1100 nM.

`Cc1[nH]n(-c2cccc(Cl)c2)c(=O)c1-c1ccc(Cl)cc1` yielded an IC50 of 930 nM.

In the case of `CN(Cc1cccc(C#N)c1)C1CCN(c2cc(NC(=O)c3cccc(F)c3)ccn2)CC1`, the concentration for half-maximal inhibition (IC50) amounted to 930 nM. In turn, `CCCc1ccccc1OCC(O)CN(C1CCCC1)C1CCCC1` (stereo unspecified) displayed an IC50 of 470 nM. In the case of `CN(C)CCCNc1ncnc2c1[nH]c1ccc(F)cc12` it was 730 nM; in that of `CCC1(C)N=C(N)N=C(N)N1c1ccc(Cl)cc1` (stereo unspecified), 160 nM; in that of `COc1ccccc1C1CCN(CCN2CCC(NC(=O)c3ccc(-c4ccc(C#N)cc4)cc3)CC2)CC1`, 790 nM. The compound `COC(=O)C(c1ccc(NC(=O)[C@H](CC(C)C)NC(=O)OC(C)(C)C)cc1)c1ccc(NC(=O)[C@H](CC(C)C)NC(=O)OC(C)(C)C)cc1` came in with an IC50 of 350 nM.

Take `Fc1ccc2nc(-c3cccc(-c4ccc(CNCc5ccccc5)cc4)c3)[nH]c2c1`: the IC50 worked out at 270 nM. As for `Cc1ccc(NC(=O)c2cccc(CN3CCCN(Cc4cccc(O)c4)CC3)c2)cc1`, the concentration for half-maximal inhibition (IC50) was determined as 1310 nM. Compared with the last compound, the IC50 is about 4.9-fold higher. The compound `Cc1cccc2[nH]c(-c3cccc(-c4cccc(CNCCc5ccncc5)c4)c3)nc12` registered an IC50 of 140 nM. Compared with the last compound, the IC50 is about 9.4-fold lower.

Consider `Cc1cc(NCCc2ccccc2)nc(/N=C(\N)Nc2cccc(Cl)c2)n1`, for which the IC50 is 180 nM. This IC50 and that of the compound before are within 1.5-fold of each other.

With `CC=CCON1C(N)=NC(N)=NC1(C)C`, the IC50 came to 30 nM. Consider `COc1ccccc1NC(=O)Nc1ccc(-c2ccc(-c3nc4ccc(C(F)(F)F)cc4[nH]3)cc2)cc1`, for which the IC50 was 540 nM. To `CC(=O)Nc1ccc([N+](=O)[O-])c2c(Br)cccc12` belongs 640 nM; to `c1ccc(-c2cc(NCCCn3ccnc3)nc(-c3cccnc3)n2)cc1`, 980 nM. For `CCOC(=O)c1cn(CC)c2cc(N3CCCCCC3)c(F)cc2c1=O`, the IC50 was 410 nM. To `CN(C)c1ccc(C2(c3ccccc3)N=C(N)N(CCCc3ccccc3)C2=O)cc1` (stereo unspecified) belongs 970 nM.

The values are drawn from PubChem BioAssay AID2305 (GlaxoSmithKline (GSK), 2010).
